# Reference: patent US12357695B2, “Peptides and nanoparticles for intracellular delivery of molecules” (AADIGEN, LLC, priority 2019, dated 2025)
# Square brackets hold non-standard residues; d marks the D form. Ava = NCCCCC(=O)O; βAla = NCCC(=O)O
# Columns and labels:
# mice = experiment: In vivo delivery of Luciferase mRNA by targeted ADGN-peptide variants, intravenous (Example 9); conditions: 5 μg Luc mRNA
# mice or rat models = experiment: Summary of cargo delivery to targeted organ (Table 1); format: in vivo; conditions: cargoes and route (IV, IM, SQ, NB) per peptide as listed in Table 1
# Source text: Table 1 lists a summary of cell-penetrating peptides that have been proven successful in delivering various cargo molecules to on or more targeted organ (e.g., by intravenous (IV), intramuscular (IM), or subcutaneous (SQ) administration, or intratraccheal instillation or nebulization (NB)) in mice or rat models.
# 293T cells = experiment: Cellular delivery of Luciferase mRNA, luciferase expression at 72 hrs; format: cell-based; conditions: 0.25 μg Luc mRNA
# Method: FIGS. 1A-1C show luciferase expression in 293T cells treated with ADGN-peptide/mRNA complexes. 293T cells cultured in 48 well plates were transfected with ADGN-peptide nanoparticles. ADGN-100, ADGN-106, ADGN-100RI, ADGN-106RI, ADGN-100 Stearyl, ADGN-Hydro1, ADGN-Hydro2, ADGN-Hydro3, ADGN-Hydro4, ADGN-Hydro5, ADGN-Hydro6 and ADGN-peptide/ADGN-100PEG 10% nanoparticles containing 0.25 μg mRNA were formed in sterile water, diluted in sterile water containing 5% Sucrose and filtered with 0.45 μm PES filters. ADGN/mRNA complexes were incubated for 3 hrs in the presence of either 25% serum or heparan sulfate prior transfection. Luciferase expression was monitored 72 hours post transfection and results were reported as RLU (luminescence):mg of protein.
# Complex formation with mRNA. The following protocols were used for the transfection of 2-5 106 Cells or Cells at confluency of about 70-80% cultured in 24 well plates. ADGN peptide/mRNA particles were prepared at a 20:1 molar ratio of ADGN-Peptide/mRNA. using (0.25 μg) mRNA. Luc mRNA (0.25 μg) was diluted in 20 μl of sterile water (GIBCO) at room temperature. 5 μl Final Peptide Solution was added to obtain a total volume of 20 μl. The volume was adjusted to 50 μl with sterile water and was mixed gently with vortex 1 min low speed and incubated 30 min at room temperature. Then the volume was made up to 100 μl by adding sterile water containing 5% sucrose, and the solution was mixed gently with vortex 1 min low speed and incubate 5 min at 37° C. and then was proceeded to cell transfection.
# Transfection protocol. Protocol is reported for 24 well plate format. Cells were cultured in Dulbecco's Modified Eagle's Medium (DMEM), supplemented with 2 mM glutamine, 1% antibiotics (streptomycin 10,000 μg/mL, penicillin, 10,000 IU/mL) and 10% (w/v) foetal calf serum (FCS), at 37° C. in a humidified atmosphere containing 5% CO2. 24 well plates seeded with 150,000 cells the day prior to transfection were grown to 50-60% confluence and set up to be at about 70% confluences at the time of transfection. Before transfection, cells were washed twice with DMEM. Cells were then overlaid with 0.1 ml of ADGN-peptide/cargo complex solution containing 0.25 μg mRNA, 0.15 μg plasmid DNA or 10-25 nM siRNA, mixed gently, and incubated for 10 min at 37° C. 0.2 mL of fresh DMEM, were added and cells were incubated for 20 min at 37° C. 1 mL of complete DMEM containing 15% FCS were then added in order to reach a final FCS concentration of 10%, without removing the overlay of ADGN-peptide/cargo complexes. Cells were returned to the incubator (37° C., 5% CO2) and 72 hrs post transfection.
# ADGN-peptides were evaluated for cellular delivery of Luciferase mRNA in 293T cells. A single dose of mRNA of 0.25 μg was evaluated. Luc mRNA (0.25 μg) in sterile water (GIBCO) were mixed with ADGN-100, ADGN-100RI, ADGN-106, ADGN-106RI, ADGN-100 Stearyl, ADGN-Hydro1, ADGN-Hydro2, ADGN-Hydro5 and ADGN-Hydro6. ADGN-peptide/mRNA complexes were filtered with 0.45 μm PES filter. In order to evaluate the stability of the ADGN/mRNA complexes in high serum and cell culture conditions, the complexes were incubated for 3 hrs in the presence of either 25% serum or heparan sulfate prior transfection, then 293T cells were transfected and Luciferase expression was monitored at 72 hrs.
# ADGN-106 peptides containing YIGSR targeting sequence were evaluated for cellular delivery of Luciferase mRNA in 293T cells. A single dose of mRNA of 0.25 μg was evaluated. Luc mRNA (0.25 μg) in sterile water (GIBCO) were mixed with ADGN-106 and ADGN-106Hydro variant. ADGN-peptide/mRNA complexes were filtered with 0.45 μm PES filter. The ADGN-106/mRNA complexes were incubated for 3 hrs in the presence of 25% serum prior transfection, then 293T cells were transfected and Luciferase expression was monitored at 72 hrs.
Substance,target delivery and expression of mRNA (tissues) (mice),Targeted Organ (mice or rat models),also measured
AC-ALWRA(GalNac)LWRLWRSLWRLLWKA-NH2 [ADGN-106GALNAC],mRNA accumulation in the liver,Liver,–
Ac-ASSLNIA-Ava-KWWERWWREWPRKRR-NH2 [ADGN-103C],negligible luciferase expression,–,–
Ac-CARPAR-WRSAGWRWRLWRVRSWSR-NH2 (Ac-CARPARWRSAGWRWRLWRVRSWSR-NH2) [ADGN-101],heart and muscles,Heart/Lung,increase of luciferase expression / efficiency in the lung relative to parent peptide (mice): 6 fold
Ac-CKRAV-RWWLRWASRWFSRWAWWR-NH2 [ADGN-109b],"the lung, heart and muscles",–,–
Ac-CKTRRVP-WRALWRLWRSLWRLLWKA-NH2 (Ac-CKTRRVPWRALWRLWRSLWRLLWKA-NH2) [ADGN-106TD],heart and muscles,Muscle/Heart,–
Ac-KSYDTYAAETR-RWASRWFSRWAWWR-NH2 [ADGN-109D],the brain and lymphnode and at lower level in liver and kidney,–,–
Ac-KSYDTY[Ava]ALRWLRWASRWFSRWAWR-NH2 [ADGN-109],the brain and lymphnode and at lower level in liver and kidney,–,–
Ac-KWRSA(GalNac)LWRWRLWRVRSWSR-NH2 (Ac-KWRSA[GalNAc]LWRWRLWRVRSWSR-NH2; not fully specified; printed as Ac-KWRSA(GalNac)LWRWRLWRVRSWSR-NH2) [ADGN-100GALNAC],mRNA accumulation in the liver,Liver,–
Ac-LSSRLDA-Ava-KWWERWWREWPRKRR [ADGN-104],heart and muscles and at lower level in the liver,–,–
Ac-SYTSSTM-Ava-KWWERWWREWPRKRR [ADGN-105],"the brain and at lower level in liver, lung and lymphnode",–,–
Ac-SYTSSTM-Ava-βALWRALWRLWRSLWRLLWKA-NH2 (Ac-SYTSSTM[Ava][βAla]LWRALWRLWRSLWRLLWKA-NH2; SMILES CSCC[C@H](NC(=O)[C@@H](NC(=O)[C@H](CO)NC(=O)[C@H](CO)NC(=O)[C@@H](NC(=O)[C@H](Cc1ccc(O)cc1)NC(=O)[C@H](CO)NC(C)=O)[C@@H](C)O)[C@@H](C)O)C(=O)NCCCCC(=O)NCCC(=O)N[C@@H](CC(C)C)C(=O)N[C@@H](Cc1c[nH]c2ccccc12)C(=O)N[C@@H](CCCNC(=N)N)C(=O)N[C@@H](C)C(=O)N[C@@H](CC(C)C)C(=O)N[C@@H](Cc1c[nH]c2ccccc12)C(=O)N[C@@H](CCCNC(=N)N)C(=O)N[C@@H](CC(C)C)C(=O)N[C@@H](Cc1c[nH]c2ccccc12)C(=O)N[C@@H](CCCNC(=N)N)C(=O)N[C@@H](CO)C(=O)N[C@@H](CC(C)C)C(=O)N[C@@H](Cc1c[nH]c2ccccc12)C(=O)N[C@@H](CCCNC(=N)N)C(=O)N[C@@H](CC(C)C)C(=O)N[C@@H](CC(C)C)C(=O)N[C@@H](Cc1c[nH]c2ccccc12)C(=O)N[C@@H](CCCCN)C(=O)N[C@@H](C)C(N)=O) [ADGN-106TB],the brain,Brain/Liver,–
Ac-TGNYKALHPDHNG-WRSALRWRLWRWSR-NH2 [ADGN-102],the brain,Brain/Lung,increase of luciferase expression / efficiency in the lung relative to parent peptide (mice): 3 fold
Ac-THRPPNWSPVWP-RALWRLWRSLWRLRWKA-NH2 (Ac-THRPPNWSPVWPRALWRLWRSLWRLRWKA-NH2) [ADGN-106TC],the brain,Brain,–
Ac-YIGSR-Ahx-ALWRALWRLWRSLWRLLWKA-NH2 [ADGN-106-Hydro-8],–,–,luciferase expression (293T cells; absence of serum or heparan sulfate treatment): high level of luciferase expression; reduction of efficiency / luciferase expression after serum treatment (293T cells; complexes incubated 3 hrs in 25% serum prior transfection): 17%; increase of mRNA expression / efficiency in the liver relative to ADGN-106 or ADGN-100 (mice; liver): 2 folds; increase of efficiency in the muscle relative to ADGN-106 (mice; muscle): 5 folds
Ac-YIGSR-Ahx-KWRSALWRWRLWRVRSWSR-NH2 [ADGN-100-Hydro-8],–,Tumor/Lung,increase of efficiency in the kidney relative to ADGN-100 (mice; kidney): 4 folds; increase of luciferase expression / efficiency in the lung relative to parent peptide (mice): 22 fold
